These results are taken from the supplement of paper PMC10307832.

The first experiment relates to NCI-H727. Nature of the experiment: relative viability (nuclei count vs DMSO), 5 days (fraction); higher = more cells survive. The following applies: first compound 2.53 µM. The method, boiled down: (§1)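 Cells from lung cancer lines were seeded into 1536-well plates and, one day later, dosed by pin tool. Treatments were either a single drug or a fixed dose of an anchor drug with five library-drug doses (not always all listed) in √10 steps. After 5 days, nuclei were stained in a one-step fixation (final 0.05% Triton X-100, 1% formaldehyde, 1 ug/ml Hoechst) and counted on 4× images, and relative viability is the treated-to-vehicle nuclei ratio, as the median of duplicate plates.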
As for `CCCCCCCCCCCC1=C(O)C(=O)C=C(O)C1=O` [Embelin] + O=C(CCCCCCC(=O)Nc1ccccc1)NO [Vorinostat] (partner 1 µM), the relative viability came to 1.32.

Molecule `CCCCCCCCCCCC1=C(O)C(=O)C=C(O)C1=O` [Embelin] + O=C(c1cc(Cc2n[nH]c(=O)c3ccccc23)ccc1F)N1CCN(C(=O)C2CC2)CC1 [Olaparib] (partner 8 µM) showed a relative viability of 0.777.

For `CCCCCCCCCCCC1=C(O)C(=O)C=C(O)C1=O` [Embelin] + Cc1cc(Nc2cc(N3CCN(C)CC3)nc(Sc3ccc(NC(=O)C4CC4)cc3)n2)n[nH]1 [Tozasertib] (partner 0.1 µM), the relative viability came out at 0.634.

Take `CCCCCCCCCCCC1=C(O)C(=O)C=C(O)C1=O` [Embelin] + Nc1ncn([C@H]2C[C@H](O)[C@@H](CO)O2)c(=O)n1 [Decitabine] (partner 2 µM): the relative viability was found to be 1.14.

Take `CCCCCCCCCCCC1=C(O)C(=O)C=C(O)C1=O` [Embelin] + CC(=O)c1c(C)c2cnc(Nc3ccc(N4CCNCC4)cn3)nc2n(C2CCCC2)c1=O [Palbociclib] (partner 0.5 µM): the relative viability was found to be 0.693.

Staying with this experiment, now noted: first compound 8 µM.
`CCCCCCCCCCCC1=C(O)C(=O)C=C(O)C1=O` [Embelin] + O=C(CCCCCCC(=O)Nc1ccccc1)NO [Vorinostat] (partner 1 µM) came in with a relative viability of 1.22.

In the case of `CCCCCCCCCCCC1=C(O)C(=O)C=C(O)C1=O` [Embelin] + O=C(c1cc(Cc2n[nH]c(=O)c3ccccc23)ccc1F)N1CCN(C(=O)C2CC2)CC1 [Olaparib] (partner 8 µM), the relative viability was 0.633.

Molecule `CCCCCCCCCCCC1=C(O)C(=O)C=C(O)C1=O` [Embelin] + Cc1cc(Nc2cc(N3CCN(C)CC3)nc(Sc3ccc(NC(=O)C4CC4)cc3)n2)n[nH]1 [Tozasertib] (partner 0.1 µM) registered a relative viability of 0.675.

`CCCCCCCCCCCC1=C(O)C(=O)C=C(O)C1=O` [Embelin] + Nc1ncn([C@H]2C[C@H](O)[C@@H](CO)O2)c(=O)n1 [Decitabine] (partner 2 µM) registered a relative viability of 0.916.

Take `CCCCCCCCCCCC1=C(O)C(=O)C=C(O)C1=O` [Embelin] + CC(=O)c1c(C)c2cnc(Nc3ccc(N4CCNCC4)cn3)nc2n(C2CCCC2)c1=O [Palbociclib] (partner 0.5 µM): the relative viability is 0.661.

The test system of a further experiment is PC-14. The experiment is described as above. The following applies: first compound 0.08 µM. The method, boiled down:
as §1
On to `CCCCCCCCCCCC1=C(O)C(=O)C=C(O)C1=O` [Embelin] + O=C(CCCCCCC(=O)Nc1ccccc1)NO [Vorinostat] (partner 1 µM), for which the relative viability is 0.746.

Take `CCCCCCCCCCCC1=C(O)C(=O)C=C(O)C1=O` [Embelin] + O=C(c1cc(Cc2n[nH]c(=O)c3ccccc23)ccc1F)N1CCN(C(=O)C2CC2)CC1 [Olaparib] (partner 8 µM): the relative viability was determined as 0.279.

On to `CCCCCCCCCCCC1=C(O)C(=O)C=C(O)C1=O` [Embelin] + Cc1cc(Nc2cc(N3CCN(C)CC3)nc(Sc3ccc(NC(=O)C4CC4)cc3)n2)n[nH]1 [Tozasertib] (partner 0.1 µM), for which the relative viability came to 0.612.

Take `CCCCCCCCCCCC1=C(O)C(=O)C=C(O)C1=O` [Embelin] + Nc1ncn([C@H]2C[C@H](O)[C@@H](CO)O2)c(=O)n1 [Decitabine] (partner 2 µM): the relative viability worked out at 0.254.

`CCCCCCCCCCCC1=C(O)C(=O)C=C(O)C1=O` [Embelin] + CC(=O)c1c(C)c2cnc(Nc3ccc(N4CCNCC4)cn3)nc2n(C2CCCC2)c1=O [Palbociclib] (partner 0.5 µM) had a relative viability of 0.548.

The experiment is the same for the next values; noted with them: first compound 0.8 µM.
On to `CCCCCCCCCCCC1=C(O)C(=O)C=C(O)C1=O` [Embelin] + O=C(CCCCCCC(=O)Nc1ccccc1)NO [Vorinostat] (partner 1 µM), for which the relative viability was 0.886.

`CCCCCCCCCCCC1=C(O)C(=O)C=C(O)C1=O` [Embelin] + O=C(c1cc(Cc2n[nH]c(=O)c3ccccc23)ccc1F)N1CCN(C(=O)C2CC2)CC1 [Olaparib] (partner 8 µM) had a relative viability of 0.264.

Molecule `CCCCCCCCCCCC1=C(O)C(=O)C=C(O)C1=O` [Embelin] + Cc1cc(Nc2cc(N3CCN(C)CC3)nc(Sc3ccc(NC(=O)C4CC4)cc3)n2)n[nH]1 [Tozasertib] (partner 0.1 µM) gave a relative viability of 0.718.

For the molecule `CCCCCCCCCCCC1=C(O)C(=O)C=C(O)C1=O` [Embelin] + Nc1ncn([C@H]2C[C@H](O)[C@@H](CO)O2)c(=O)n1 [Decitabine] (partner 2 µM), the relative viability worked out at 0.21.

`CCCCCCCCCCCC1=C(O)C(=O)C=C(O)C1=O` [Embelin] + CC(=O)c1c(C)c2cnc(Nc3ccc(N4CCNCC4)cn3)nc2n(C2CCCC2)c1=O [Palbociclib] (partner 0.5 µM) yielded a relative viability of 0.597.

Staying with this experiment, now noted: first compound 2.53 µM.
On to `CCCCCCCCCCCC1=C(O)C(=O)C=C(O)C1=O` [Embelin] + O=C(CCCCCCC(=O)Nc1ccccc1)NO [Vorinostat] (partner 1 µM), for which the relative viability was found to be 0.586.

For `CCCCCCCCCCCC1=C(O)C(=O)C=C(O)C1=O` [Embelin] + O=C(c1cc(Cc2n[nH]c(=O)c3ccccc23)ccc1F)N1CCN(C(=O)C2CC2)CC1 [Olaparib] (partner 8 µM), the relative viability came to 0.303.

Regarding `CCCCCCCCCCCC1=C(O)C(=O)C=C(O)C1=O` [Embelin] + Cc1cc(Nc2cc(N3CCN(C)CC3)nc(Sc3ccc(NC(=O)C4CC4)cc3)n2)n[nH]1 [Tozasertib] (partner 0.1 µM), the relative viability was determined as 0.74.

In turn, `CCCCCCCCCCCC1=C(O)C(=O)C=C(O)C1=O` [Embelin] + Nc1ncn([C@H]2C[C@H](O)[C@@H](CO)O2)c(=O)n1 [Decitabine] (partner 2 µM) had a relative viability of 0.163.

`CCCCCCCCCCCC1=C(O)C(=O)C=C(O)C1=O` [Embelin] + CC(=O)c1c(C)c2cnc(Nc3ccc(N4CCNCC4)cn3)nc2n(C2CCCC2)c1=O [Palbociclib] (partner 0.5 µM) returned a relative viability of 0.819.

The same experiment, now with this note: first compound 8 µM.
In turn, `CCCCCCCCCCCC1=C(O)C(=O)C=C(O)C1=O` [Embelin] + O=C(CCCCCCC(=O)Nc1ccccc1)NO [Vorinostat] (partner 1 µM) registered a relative viability of 0.948.

With `CCCCCCCCCCCC1=C(O)C(=O)C=C(O)C1=O` [Embelin] + O=C(c1cc(Cc2n[nH]c(=O)c3ccccc23)ccc1F)N1CCN(C(=O)C2CC2)CC1 [Olaparib] (partner 8 µM), the relative viability is 0.26.

`CCCCCCCCCCCC1=C(O)C(=O)C=C(O)C1=O` [Embelin] + Cc1cc(Nc2cc(N3CCN(C)CC3)nc(Sc3ccc(NC(=O)C4CC4)cc3)n2)n[nH]1 [Tozasertib] (partner 0.1 µM) gave a relative viability of 0.644.

The molecule `CCCCCCCCCCCC1=C(O)C(=O)C=C(O)C1=O` [Embelin] + Nc1ncn([C@H]2C[C@H](O)[C@@H](CO)O2)c(=O)n1 [Decitabine] (partner 2 µM) came in with a relative viability of 0.209.

Take `CCCCCCCCCCCC1=C(O)C(=O)C=C(O)C1=O` [Embelin] + CC(=O)c1c(C)c2cnc(Nc3ccc(N4CCNCC4)cn3)nc2n(C2CCCC2)c1=O [Palbociclib] (partner 0.5 µM): the relative viability amounted to 0.569.
